Reference: US10780071B2, “Compositions, methods and/or devices for prevention and/or treatment of dry eye disorders” (Brien Holden Vision Institute Limited, priority 2012, dated 2020)
Where two headings read alike, the source gives them in different places.

Tests used:
[1] = test system: S. epidermidis 025; assay: Bacterial growth, optical density of cultures at 660 nm; format: cell-based; details: read-out: Inhibition of Growth
Experimental: (§1) The bacterial strains S. aureus 020 & 134, and S. epidermidis 024 & 025 were grown at 37° C. in TSB treated with 0, 6.25 or 12.5 μg/ml of glycerol monolaurate or lauric acid as well as in TSB extraction of glycerol monolaurate ointment prior to assay of bacterial growth and lipase activity. After incubation for 24 h, bacterial growth was determined by measuring the optical density of cultures using a spectrophotometer at a wavelength of 660 nm. Lipase activity by test bacterial strains under various treatments were assessed by examining the lipase activity in bacterial culture supernatants with a QuantiChrom™ Lipase Assay Kit.

[2] = test system: S. epidermidis 024; assay: as above; format: cell-based; details: read-out: Inhibition of Growth
Experimental: as §1

[3] = test system: lipase; assay: Lipase activity in bacterial culture supernatants (QuantiChrom Lipase Assay Kit); format: cell-based; details: TSB, 37° C., 24 h
Experimental: as §1

[4] = test system: S. aureus 020 & 134, and S. epidermidis 024 & 025; assay: Bacterial growth, summary over the test strains; format: cell-based; details: concentrations of Tables 1-4; 24 h
Experimental: as §1

[5] = test system: lipase; assay: Lipase activity in culture supernatants, summary over the test strains; format: cell-based, S. aureus 020 & 134, and S. epidermidis 024 & 025
Experimental: as §1, with “and S. epidermidis 024 & 025 were grown at 37° C. in TSB treated with 0, 6.25 or 12.5 μg/ml of glycerol monolaurate or lauric acid as well as in TSB extraction” left out

[6] = test system: S. aureus 020; assay: Bacterial growth, optical density of cultures at 660 nm; format: cell-based; details: Staphylococcus aureus, 020, 24 h, read-out: Inhibition of Growth
Experimental: as §1

[7] = test system: S. aureus 134; assay: as above; format: cell-based; details: Staphylococcus aureus, TSB, 37° C., 24 h
Experimental: as §1

[8] = test system: lipase; assay: Lipase activity in bacterial culture supernatants (QuantiChrom Lipase Assay Kit); format: cell-based; details: S. aureus 134, TSB, 37° C., 24 h
Experimental: as §1, with “epidermidis 024 & 025 were grown at 37° C. in TSB treated with 0, 6.25 or 12.5 μg/ml of glycerol monolaurate or lauric acid as well as” left out

[9] = test system: lipase; assay: as above; format: cell-based; details: S. aureus 020, TSB, 37° C., 24 h
Experimental: as §1, with “and S. epidermidis 024 & 025 were grown at 37° C. in TSB treated with 0, 6.25 or 12.5 μg/ml of glycerol monolaurate or lauric acid as well as” left out

[10] = Staphylococcus epidermidis, 025, 24 h
[11] = glycerol monolaurate 12.5 μg/ml
[12] = glycerol monolaurate 17.5 μg/ml
[13] = Staphylococcus epidermidis, 024, 24 h

`CCCCCCCCCCCC(=O)O` [Lauric acid] gave an inhibition at 6.25 µg/mL ([1]; Staphylococcus epidermidis, S. epidermidis 025, lauric acid 6.25 μg/ml, TSB, 37° C., 24 h) of 0%, an inhibition at 12.5 µg/mL ([1]; Staphylococcus epidermidis, S. epidermidis 025, lauric acid 12.5 μg/ml, TSB, 37° C., 24 h) of 0% and an inhibition at 6.25 µg/mL ([2]; Staphylococcus epidermidis, S. epidermidis 024, lauric acid 6.25 μg/ml, TSB, 37° C., 24 h) of 0%. The inhibition at 12.5 µg/mL ([2]; Staphylococcus epidermidis, S. epidermidis 024, lauric acid 12.5 μg/ml, TSB, 37° C., 24 h) was 0%, the “Inhibition of Lipase activity” value ([3]; S. epidermidis 024, lauric acid 6.25 μg/ml) was 46% and the “Inhibition of Lipase activity” value ([3]; S. epidermidis 024, lauric acid 12.5 μg/ml) was 70%. For the same compound, the “Inhibition of Lipase activity” value ([3]; S. epidermidis 025, lauric acid 6.25 μg/ml) was 48%, the “Inhibition of Lipase activity” value ([3]; S. epidermidis 025, lauric acid 12.5 μg/ml) was 72% and the “effect on growth of the bacterial strains at the concentrations used” value [4] was “do not substantially inhibit growth”. For the same compound, the “inhibits lipase activity by approximately (range over Table 2)” value ([5]; S. epidermidis 024 and 025, 6.25 and 12.5 μg/ml (Table 2)) was 46-72%.
`CCCCCCCCCCCC(=O)OCC(O)CO` (stereo not shown) [Glycerol monolaurate] showed an inhibition at 5 µg/mL [6] of 1%, an inhibition at 7.5 µg/mL [6] of 0% and an inhibition at 10 µg/mL [6] of 4%. It also gave an inhibition at 12.5 µg/mL [6] of 4%, an inhibition at 15 µg/mL [6] of 2% and an inhibition at 17.5 µg/mL [6] of 0%. For the same compound, the inhibition at 6.25 µg/mL [1, 10] was 0%, the inhibition at 12.5 µg/mL [1, 10] was 0% and the inhibition at 10 µg/mL ([7]; glycerol monolaurate 10 μg/ml) was 0%. It also gave an inhibition at 12.5 µg/mL [7, 11] of 0%, an inhibition at 15 µg/mL ([7]; glycerol monolaurate 15 μg/ml) of 1% and an inhibition at 17.5 µg/mL [7, 12] of 0%. The inhibition at 6.25 µg/mL [2, 13] was 0%, the inhibition at 12.5 µg/mL [2, 13] was 0% and the “Inhibition of Lipase activity” value ([8]; glycerol monolaurate 10 μg/ml) was 25%. For the same compound, the “Inhibition of Lipase activity” value [8, 11] was 38%, the “Inhibition of Lipase activity” value ([8]; glycerol monolaurate 15 μg/ml) was 49% and the “Inhibition of Lipase activity” value [8, 12] was 63%. The “Inhibition of Lipase activity” value ([9]; glycerol monolaurate 5 μg/ml) was 16%, the “Inhibition of Lipase activity” value ([9]; glycerol monolaurate 7.5 μg/ml) was 29% and the “Inhibition of Lipase activity” value ([9]; glycerol monolaurate 10 μg/ml) was 50%. For the same compound, the “Inhibition of Lipase activity” value [9, 11] was 63%, the “Inhibition of Lipase activity” value ([9]; glycerol monolaurate 15 μg/ml) was 73% and the “Inhibition of Lipase activity” value [9, 12] was 88%. For the same compound, the “Inhibition of Lipase activity” value ([3]; S. epidermidis 024, glycerol monolaurate 6.25 μg/ml) was 46%, the “Inhibition of Lipase activity” value ([3]; S. epidermidis 024, glycerol monolaurate 12.5 μg/ml) was 70% and the “Inhibition of Lipase activity” value ([3]; S. epidermidis 025, glycerol monolaurate 6.25 μg/ml) was 48%. For the same compound, the “Inhibition of Lipase activity” value ([3]; S. epidermidis 025, glycerol monolaurate 12.5 μg/ml) was 72%, the “effect on growth of the bacterial strains at the concentrations used” value [4] was “do not substantially inhibit growth” and the “inhibits lipase activity by approximately (range over Table 1)” value ([5]; all strains and concentrations of Table 1 (5-17.5 μg/ml)) was 16-88%.
